Data on nine compounds can be found in publication PMC7586963, “Coumarin‐Tagged Dinuclear Trithiolato‐Bridged Ruthenium(II)⋅Arene Complexes: Photophysical Properties and Antiparasitic Activity” (Chembiochem, 2020).

Read-outs that look alike come from different tables or passages of the source.

Data set [1] in a line: in vitro. The following applies: human.
Method: (§1) In addition, the effects on uninfected HFF host cells were assessed. […] The viability of HFF cultures following drug treatments was measured by alamarBlue assay, and the proliferation of T. gondii was quantified by measuring β‐galactosidase activity.
Data set [2] concerns T. gondii β-gal tachyzoites. Put plainly: T. gondii β-gal tachyzoite proliferation in HFF (β-galactosidase/CPRG assay). The following applies: for activity at 0.1 µM / activity at 1 µM: read-out: T. gondii β-gal proliferation (%); for T. gondii β-gal proliferation (%): 3 days, relative to 0.1 % DMSO control; for IC50: read-out: IC50 against T. gondii β-gal tachyzoite proliferation.
Method: The compounds presented in this study were screened for biological activity in vitro against T. gondii β‐gal, a transgenic strain that constitutively expresses β‐galactosidase, which is grown in HFF monolayers. In addition, the effects on uninfected HFF host cells were assessed. […] The viability of HFF cultures following drug treatments was measured by alamarBlue assay, and the proliferation of T. gondii was quantified by measuring β‐galactosidase activity.
In vitro culture of parasites and host cells: If not stated otherwise, all tissue culture media were purchased from Gibco‐BRL, and biochemical reagents were from Sigma‐Aldrich). Human foreskin fibroblasts (HFF) were maintained in DMEM containing 10 % fetal calf serum (FCS; Gibco‐BRL) and antibiotics as described earlier.10 T. gondii β‐gal (transgenic T. gondii RH expressing the β‐galactosidase gene from E. coli 69 were maintained in HFF cells, and were isolated and separated from their host cells as described.10
In vitro assessment of drug efficacy: To study the effects of compounds against T. gondii tachyzoites in vitro, 1 mM stock solutions of complexes were prepared in DMSO, and stored at −20 °C. For assessment of drug efficacy against T. gondii tachyzoites, parasites were isolated and assays were performed using HFF as host cells as previously described.10 In short, 5×10^3 HFF cells per well were grown to confluence in a 96‐well plate in phenol‐red free culture medium at 37 °C with 5 % CO2. […] Initial assessments of drug efficacy were done by exposing parasite cultures to 0.1 and 1 μM of each compound for a period of three days, or 0.1 % DMSO was added as a control. […] After three days of incubation at 37 °C, 5 % CO2, medium was removed, and cell cultures were permeabilized by using 90 μL PBS containing 0.05 % Triton‐X‐100. After addition of 10 μL of 5 mM chlorophenol red‐β‐D‐galactopyranoside (CPRG; Roche Diagnostics) dissolved in PBS, the absorption shift was measured at 570 nm wavelength at various time points on a VersaMax multiplate reader (Bucher Biotec, Basel, Switzerland). For the initial screening at 0.1 and 1 μM, the activity, measured as the release of chlorophenol red over time, was calculated as percentage from DMSO control, which represented 100 % of T. gondii β‐gal growth. […] IC50 values were calculated after the logit‐log‐transformation of relative growth and subsequent regression analysis. All calculations were performed using the corresponding software tool contained in the Excel software package (Microsoft).

Data set [3] concerns human foreskin fibroblasts (HFF).
Method: as §1
Data set [4] has the same test system. The experiment in a line: Cytotoxicity on uninfected confluent HFF (alamarBlue assay). The following applies: 2.5 μM.
Method: as §1

Turning to `CCN(CC)c1ccc2cc(C(=O)NCCCNC(=O)OC(C)(C)C)c(=O)oc2c1` [Compound 5], in data set [1], the viability at 3 days, 0.1 µM worked out at 118 ± 10% and the viability at 3 days, 1 µM was 88 ± 10%. Also, in data set [2] (Toxoplasma gondii, 72 h), the activity at 0.1 µM is 131 ± 3% and the activity at 1 µM was 118 ± 22%.
Consider `CCN(CC)c1ccc2cc(C(=O)NCCCCNC(=O)OC(C)(C)C)c(=O)oc2c1` [Compound 6], for which, in data set [1], the viability at 3 days, 0.1 µM was determined as 98 ± 8% and the viability at 3 days, 1 µM is 82 ± 4%. For the same compound, in data set [2] (Toxoplasma gondii, 72 h), the activity at 0.1 µM was 137 ± 9% and the activity at 1 µM came to 125 ± 16%.
In the case of `CC(C)(C)OC(=O)NCCCCNC(=O)c1cc2cc3c4c(c2oc1=O)CCCN4CCC3` [Compound 7], in data set [1], the viability at 3 days, 0.1 µM is 95 ± 9% and the viability at 3 days, 1 µM is 96 ± 6%. In addition, in data set [2] (Toxoplasma gondii, 72 h), the activity at 0.1 µM came out at 132 ± 6% and the activity at 1 µM is 148 ± 5%.
Consider `CCN(CC)c1ccc2cc(C(=O)NCCCN)c(=O)oc2c1` [Compound 8], for which, in data set [1], the viability at 3 days, 0.1 µM was found to be 96 ± 9% and the viability at 3 days, 1 µM stood at 85 ± 6%. In data set [2] (Toxoplasma gondii, 72 h), the activity at 0.1 µM was 117 ± 10% and the activity at 1 µM was found to be 114 ± 13%.
Regarding `CCN(CC)c1ccc2cc(C(=O)NCCCCN)c(=O)oc2c1` [Compound 9], in data set [1], the viability at 3 days, 0.1 µM is 125 ± 20% and the viability at 3 days, 1 µM was determined as 111 ± 4%. Besides, in data set [2] (Toxoplasma gondii, 72 h), the activity at 0.1 µM was 114 ± 4% and the activity at 1 µM worked out at 127 ± 4%.
In the case of `NCCCCNC(=O)c1cc2cc3c4c(c2oc1=O)CCCN4CCC3` [Compound 10], in data set [1], the viability at 3 days, 0.1 µM came to 124 ± 5% and the viability at 3 days, 1 µM was found to be 69 ± 9%. In data set [2] (Toxoplasma gondii, 72 h), the activity at 0.1 µM turned out to be 101 ± 8% and the activity at 1 µM was 113 ± 7%.
With `O=C(O)c1cc2cc3c4c(c2oc1=O)CCCN4CCC3` [Dye2‐CO2H, 11‐oxo‐2,3,6,7‐tetrahydro‐1H,5H,11H‐pyrano[2,3‐f]pyrido[3,2,1‐ij]quinoline‐10‐carboxylic acid, reference compound], in data set [1], the viability at 3 days, 0.1 µM turned out to be 106 ± 1% and the viability at 3 days, 1 µM worked out at 105%. Also, in data set [2] (0.1 µM), the “T. gondii β-gal proliferation (%)” value is 69%. Moreover, in data set [2] (Toxoplasma gondii, 72 h), the activity at 0.1 µM stood at 69 ± 11% and the activity at 1 µM is 92 ± 6%. Further, in data set [3] (0.1 µM), the “HFF viability (%)” value is reported as “did not affect viability of HFF”. Moreover, the “HFF viability (%)” value in data set [3] (1 µM) is on record as “did not affect viability of HFF”.
Take `CCc1nc(N)nc(N)c1-c1ccc(Cl)cc1` [pyrimethamine, reference compound]: in data set [1], the viability at 2.5 µM was 99%. In data set [2] (Toxoplasma gondii, 72 h), the IC50 stood at 0.326 µM.
As to “[(η6-p-MeC6H4Pri)2Ru2(µ2-SCH2C6H4-p-But)(µ2-SC6H4-p-OH)2]Cl [Compound 19]”, the “T. gondii β-gal proliferation (%)” value in data set [2] (0.1 µM) is 3 ± 1%; in data set [2] (1 µM), 2 ± 0%. Also, the IC50 in data set [2] (three days of incubation, in HFF host cells, 6 concentrations 0.03-1 μM) is 0.115 µM. Further, the “reduction in HFF viability” value in data set [4] is 98%. The “HFF viability (%)” value in data set [3] (0.1 µM) stood at 62 ± 8%; in data set [3] (1 µM), 56 ± 7%. In data set [3] (2.5 μM), the “HFF viability at 2.5 μM” value stood at 2%.
